The target in one series is T1, BRD2(1) (Homo sapiens, UniProt P25440).
T1 construct: the second as compared with the first bromodomain of these BRDs
In words: Protein stability shift assay (thermal shift), BRD2(1). It counts as binding. The note with it: 10 μM ligand.

The target of a further series is T2, BRD2(2) (Homo sapiens, UniProt P25440).
T2 construct: the second as compared with the first bromodomain of these BRDs
In words: Protein stability shift assay (thermal shift), BRD2(2). It counts as binding. The note with it: 10 μM ligand.

A further series concerns the target T3, BRD3(1) (Homo sapiens, UniProt Q15059).
T3 construct: the second as compared with the first bromodomain of these BRDs
In words: Protein stability shift assay (thermal shift), BRD3(1). The following applies: 10 μM ligand. The class given is binding.

The target in the next series is T4, BRD4(2) (Homo sapiens, UniProt O60885).
T4 construct: the second as compared with the first bromodomain of these BRDs
As to the kind of experiment: Protein stability shift assay (thermal shift), BRD4(2). The class given is binding. The note with it: 10 μM ligand.

In another series the target is T5, BRDT(1) (Homo sapiens, UniProt Q58F21).
T5 construct: the second as compared with the first bromodomain of these BRDs
In words: Protein stability shift assay (thermal shift), BRDT(1). The class given is binding. The following applies: 10 μM ligand.

For the next series, the target named is T6, BRDT(2) (Homo sapiens, UniProt Q58F21).
T6 construct: the second as compared with the first bromodomain of these BRDs
In words: Protein stability shift assay (thermal shift), BRDT(2). It counts as binding. The following applies: 10 μM ligand.

The target in the next series is T7, BAZ2B (Homo sapiens, UniProt Q9UIF8).
T7 construct: Thermal shift (Δtm^obs) of human bromodomains in the presence of 10 μM compound
T7 sequence (Q9UIF8 2060-2164 limits assumed): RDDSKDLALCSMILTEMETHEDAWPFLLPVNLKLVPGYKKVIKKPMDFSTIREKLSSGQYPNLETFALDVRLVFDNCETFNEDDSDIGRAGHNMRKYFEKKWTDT
As to the kind of experiment: Protein stability shift assay (thermal shift), BAZ2B. The class given is binding. The note with it: 10 μM ligand.

The next series addresses T8, CREBBP (Homo sapiens, UniProt Q92793).
T8 construct: Thermal shift (Δtm^obs) of human bromodomains in the presence of 10 μM compound
In words: Protein stability shift assay (thermal shift), CREBBP. It counts as binding. The following applies: 10 μM ligand.

The target of the next series is T9, PB1(5) (Homo sapiens, UniProt Q86U86).
T9 construct: Thermal shift (Δtm^obs) of human bromodomains in the presence of 10 μM compound
In words: Protein stability shift assay (thermal shift), PB1(5). The following applies: 10 μM ligand. The class given is binding.

The target of a further series is T10, PCAF (Homo sapiens, UniProt Q92831).
T10 construct: Thermal shift (Δtm^obs) of human bromodomains in the presence of 10 μM compound
T10 sequence (Q92831 723-827 limits assumed): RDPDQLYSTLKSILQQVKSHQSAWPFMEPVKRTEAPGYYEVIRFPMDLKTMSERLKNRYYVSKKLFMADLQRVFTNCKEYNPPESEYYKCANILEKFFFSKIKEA
As to the kind of experiment: Protein stability shift assay (thermal shift), PCAF. The following applies: 10 μM ligand. The class given is binding.

In the next series the test system is recombinant BRD3 domains. As to the kind of experiment: Bromodomain inhibition assay (Alphascreen), acetylated histone H4 peptide displacement, BRD3. It counts as biochemical. The following applies: domains 1 and 2, result in words (Figure 4). For orientation: Bead proximity is the source of the signal in Alpha formats.
Another series concerns recombinant BRD4 domains. As to the kind of experiment: Bromodomain inhibition assay (Alphascreen), acetylated histone H4 peptide displacement, BRD4. The note with it: domains 1 and 2, result in words (Figure 4). The class given is biochemical.
Series [1] deals with apoA-I production by primary human hepatocytes. As to the kind of experiment: apoA-I production by primary human hepatocytes (ELISA). The class given is cell-based. The note with it: cultured human hepatocytes. (In general: In an ELISA, binding on a coated surface is turned into a signal by an enzyme label.)
The next series has as its system central BZD receptor. As to the kind of experiment: Binding to central BZD receptor, 3H-flunitrazepam, rat cerebral cortex membranes. The note with it: rat brain membranes, result in words (Figure 3A).
The target in series [2] is T11, human recombinant PAF receptor (Homo sapiens, UniProt P25105).
T11 construct: expressed in transfected cells; host or cells: CHO cells
As to the kind of experiment: Binding to PAF receptor, 3H-C16-PAF, CHO cells. The following applies: cells expressing the human PAF receptor, result in words (Figure 3B).

A short description of series [3]: Metabolic stability in human hepatocytes. It counts as in vitro ADME. The following applies: cryopreserved human hepatocytes, donor 2, 10 μM, read-out: stability in human hepatocytes (% remaining after 120 min).
Series [4] in a line: Cytotoxicity: ATP level (Cell Titer Glo). The class given is cell-based, human. The note with it: 100 μM, 72 hours, result in words. On the technique in general: ATP-based viability assays read luminescence as a measure of living cells.
Series [5] has as its system fibrosarcoma cells (HT1080). In words: Cytotoxicity: mitochondrial membrane potential (TMRM).
Series [6] concerns the target T12, BRD3(2) (Homo sapiens, UniProt Q15059). In words: Protein stability shift assay (thermal shift), BRD3(2). It counts as binding. Also noted: the second as compared with the first bromodomain of these BRDs. The note with it: 10 μM ligand.
Series [7] concerns the target T13, BRD4(1) (Homo sapiens, UniProt O60885). As to the kind of experiment: Protein stability shift assay (thermal shift), BRD4(1). It counts as binding. Also noted: the second as compared with the first bromodomain of these BRDs. The note with it: 10 μM ligand.
Series [8] concerns the target T12, BRD3(2). As to the kind of experiment: Isothermal titration calorimetry, BRD3(2). The class given is binding. Set-up: 2 μM for the first bromodomain in BRD4 and 0.5 μM for the second bromodomain in BRD3. The note with it: ITC.
In series [9] the target is T13, BRD4(1). As to the kind of experiment: Isothermal titration calorimetry, BRD4(1). Also noted: 2 μM for the first bromodomain in BRD4 and 0.5 μM for the second bromodomain in BRD3. The note with it: ITC. The class given is binding.
In series [10] the test system is apoA-I production by Hep-G2 cells. Set-up: method as in PMID 20513599. The note with it: HepG2 cells, 40 μM; cited from earlier work.
The conditions of series [11]: some of the participants; cited from earlier work.

Read-outs that look alike come from different tables or passages of the source.

Here are results for two compounds from publication PMC4147775, “Stimulation of Hepatic Apolipoprotein A-I Production by Novel Thieno-Triazolodiazepines: Roles of the Classical Benzodiazepine Receptor, PAF Receptor, and Bromodomain Binding” (Lipid insights, 2013).

T12 sequence (Q15059 306-415 limits assumed): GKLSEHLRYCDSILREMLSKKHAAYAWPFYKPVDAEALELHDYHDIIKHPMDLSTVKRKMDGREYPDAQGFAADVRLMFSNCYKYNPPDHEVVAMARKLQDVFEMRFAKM
T3 sequence (Q15059 34-140 limits assumed): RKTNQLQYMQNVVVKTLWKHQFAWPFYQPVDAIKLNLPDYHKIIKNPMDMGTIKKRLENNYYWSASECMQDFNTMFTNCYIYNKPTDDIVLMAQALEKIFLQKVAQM
T1 sequence (P25440 74-180 limits assumed): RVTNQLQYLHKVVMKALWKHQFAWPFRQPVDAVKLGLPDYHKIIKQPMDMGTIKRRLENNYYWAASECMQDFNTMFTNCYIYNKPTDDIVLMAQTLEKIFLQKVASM
T8 sequence (Q92793 1085-1192 limits assumed): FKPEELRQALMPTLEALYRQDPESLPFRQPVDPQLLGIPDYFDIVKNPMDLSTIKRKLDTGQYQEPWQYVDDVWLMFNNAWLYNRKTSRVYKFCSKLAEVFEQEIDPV
T9 sequence (Q86U86 653-763 limits assumed): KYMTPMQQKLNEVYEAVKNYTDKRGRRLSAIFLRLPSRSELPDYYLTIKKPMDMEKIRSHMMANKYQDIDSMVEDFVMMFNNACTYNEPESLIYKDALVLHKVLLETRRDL
T2 sequence (P25440 344-453 limits assumed): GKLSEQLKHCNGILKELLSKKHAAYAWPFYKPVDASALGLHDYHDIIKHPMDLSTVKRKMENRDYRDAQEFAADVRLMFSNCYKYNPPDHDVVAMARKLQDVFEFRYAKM
T11 sequence (P25105 whole entry): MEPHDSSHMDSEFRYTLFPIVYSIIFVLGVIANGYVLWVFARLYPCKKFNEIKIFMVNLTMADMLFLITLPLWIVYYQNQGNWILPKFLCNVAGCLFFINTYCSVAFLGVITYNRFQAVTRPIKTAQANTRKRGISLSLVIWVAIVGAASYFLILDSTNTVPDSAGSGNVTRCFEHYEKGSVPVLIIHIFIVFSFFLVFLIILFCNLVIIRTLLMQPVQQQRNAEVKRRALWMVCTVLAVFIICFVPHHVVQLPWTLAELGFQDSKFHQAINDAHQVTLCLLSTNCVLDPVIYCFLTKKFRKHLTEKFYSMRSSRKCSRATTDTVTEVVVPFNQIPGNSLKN

For the compound `Cc1nnc2n1-c1sccc1C(c1ccccc1)=NC2(C)C` [MDCO-3770], on BRD2(1), the “Thermal shift (ΔTm obs) BRD2(1)” value is recorded as −1.1. Besides, the “Thermal shift (ΔTm obs) BRD2(2)” value on BRD2(2) worked out at 0.0. Also, at BRD3(1), the “Thermal shift (ΔTm obs) BRD3(1)” value was −0.2. Moreover, the “Thermal shift (ΔTm obs) BRD4(2)” value on BRD4(2) is recorded as 2.5. At BRDT(1), the “Thermal shift (ΔTm obs) BRDT(1)” value is on record as −0.9. Besides, the “Thermal shift (ΔTm obs) BRDT(2)” value at BRDT(2) came out at 0.3. Moreover, the “Thermal shift (ΔTm obs) BAZ2B” value on BAZ2B is recorded as −0.4. Moreover, the “Thermal shift (ΔTm obs) CREBBP” value on CREBBP was −0.6. Also, the “Thermal shift (ΔTm obs) PB1(5)” value on PB1(5) was −0.5. At PCAF, the “Thermal shift (ΔTm obs) PCAF” value is reported as 1.5. Besides, the “inhibition of binding of acetylated histone H4 peptide to BRD3 domains” value in the series with recombinant BRD3 domains was “clearly more potent than the other 2 thieno-TZDs”. Besides, the “inhibition of binding of acetylated histone H4 peptide to BRD4 domains” value in the series with recombinant BRD4 domains was “clearly more potent than the other 2 thieno-TZDs”. In series [1] (72 hours, maximal stimulation), the “stimulation of apoA-I production” value is “up to 3 fold”. Also, in the series with central BZD receptor, the “competition with labeled flunitrazepam” value is “did not compete”. Moreover, in [2], the “competition with labeled PAF” value was “only weakly displaced”. The fraction remaining at 2 h, 10 μM in series [3] is 97%. For the same compound, in series [4], the “ATP level in human hepatocytes” value was “no effect at 100 μM (n = 3)”. Besides, in [5] (100 μM, 72 hours, result in words), the “mitochondrial membrane potential in fibrosarcoma cells” value is listed as “no effect at 100 μM (n = 5)”. In addition, at BRD3(2) [6], the “Thermal shift (ΔTm obs) BRD3(2)” value is given as 5.3. For the same compound, on BRD4(1) [7], the “Thermal shift (ΔTm obs) BRD4(1)” value was 3.3. For the same compound, the TΔS at BRD3(2) [8] (BRD3(2), 15°C) was 0.04 kcal/mol; at BRD4(1) [9] (BRD4(1), 15°C), 0.01 kcal/mol. The ΔH obs at BRD3(2) [8] (BRD3(2), 15°C) is -4.62 ± 0.042 kcal/mol; at BRD4(1) [9] (BRD4(1), 15°C), -6.71 ± 0.103 kcal/mol. Also, the N was 1.02 ± 0.006 on BRD3(2) [8] (BRD3(2), 15°C, single binding site model) and 0.99 ± 0.011 on BRD4(1) [9] (BRD4(1), 15°C, single binding site model). The Kd at BRD3(2) [8] (KD, BRD3(2), 15°C, reverse titration) came out at 513 ± 40.5 nM; at BRD3(2) [8] (binding affinity, second bromodomain in BRD3, rounded in text), 500 nM; at BRD4(1) [9] (KD, BRD4(1), 15°C, reverse titration) it was 2060 ± 141 nM; on BRD4(1) [9] (binding affinity, first bromodomain in BRD4, rounded in text) it was 2000 nM. Further, the ΔG at BRD4(1) [9] (BRD4(1), 15°C) is -6.71 kcal/mol.

Regarding `COc1cc(OC)c2c(=O)[nH]c(-c3cc(C)c(OCCO)c(C)c3)nc2c1` [RVX-208, reference compound], the “Thermal shift (ΔTm obs) BRD2(1)” value on BRD2(1) was determined as 0.9. Also, the “Thermal shift (ΔTm obs) BRD2(2)” value at BRD2(2) amounted to 4.0. For the same compound, the “Thermal shift (ΔTm obs) BRD3(1)” value at BRD3(1) is listed as 0.8. Besides, on BRD4(2), the “Thermal shift (ΔTm obs) BRD4(2)” value is on record as 3.4. Besides, at BRDT(1), the “Thermal shift (ΔTm obs) BRDT(1)” value amounted to 0.6. Besides, the “Thermal shift (ΔTm obs) BRDT(2)” value on BRDT(2) is on record as 4.0. Also, the “Thermal shift (ΔTm obs) BAZ2B” value at BAZ2B was −0.2. For the same compound, the “Thermal shift (ΔTm obs) CREBBP” value at CREBBP was −0.2. In addition, on PB1(5), the “Thermal shift (ΔTm obs) PB1(5)” value was 0.0. For the same compound, the “Thermal shift (ΔTm obs) PCAF” value at PCAF is given as −0.4. Besides, the “increase of apoA-I production” value in series [1] (highest concentration tested (100 μM)) is reported as “up to 80%”. Moreover, in series [10], the “stimulation of apoA-I protein production” value was 2 fold. Further, the “liver safety in human study” value in series [11] is “signs of liver damage”. The IC50 in series [5] (Homo sapiens, HT-1080, 72 h, read-out: mitochondrial membrane potential in fibrosarcoma cells, IC50, 72 hours) came to 50000 nM; in [5] (read-out: mitochondrial membrane potential in fibrosarcoma cells, IC50, 72 hours) it was 49000 nM. At BRD3(2) [6], the “Thermal shift (ΔTm obs) BRD3(2)” value worked out at 4.0. The “Thermal shift (ΔTm obs) BRD4(1)” value on BRD4(1) [7] is listed as 1.3.

What is called amount remaining is what is left of the initial amount, in per cent. One may read the Kd as the constant that tells how readily two partners part at equilibrium. Usually IC50 stands for the concentration needed to halve the response being measured.
